In ChEMBL document CHEMBL1201862, “PubChem BioAssay data set” (2004):
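Values below derive from 48-hour exposures of cells grown in 96-well plates, with endpoints linearly interpolated between the two concentrations bracketing the appropriate inhibition level. Here, GI50 denotes the concentration required for 50% inhibition of growth.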 The source made the active and inactive calls. Cut-off read from the data, not from the text of the source: active = GI50 up to about 1.1 µM and inactive = higher.

Experiments:
Experiment in all cases: growth of human tumour cells (NCI), 48 h
786-0 = tested on: 786-0
A498 = tested on: A498
A549 = tested on: A549
ACHN = tested on: ACHN
HCT-116 = tested on: HCT-116
HOP-62 = tested on: HOP-62
IGROV-1 = tested on: IGROV-1
M14 = tested on: M14
NCI-H226 = tested on: NCI-H226
NCI-H23 = tested on: NCI-H23
OVCAR-3 = tested on: OVCAR-3
OVCAR-4 = tested on: OVCAR-4
RPMI-8226 = tested on: RPMI-8226
SK-MEL-28 = tested on: SK-MEL-28
SK-OV-3 = tested on: SK-OV-3
TK-10 = tested on: TK-10
UACC-257 = tested on: UACC-257
UACC-62 = tested on: UACC-62
CAKI-1 = tested on: CAKI-1

Measured: GI50

CN1CCCCC(C(O)(c2ccccc2)c2ccccc2)C1=O (stereo unspecified)
inactive: 786-0 > 100 µM | A498 > 100 µM | A549 > 100 µM | ACHN > 100 µM | HCT-116 24.8 µM | HOP-62 > 100 µM | IGROV-1 > 100 µM | M14 > 100 µM | NCI-H226 > 100 µM | NCI-H23 > 100 µM | OVCAR-3 > 100 µM | OVCAR-4 > 100 µM | RPMI-8226 24.1 µM | SK-MEL-28 > 100 µM | SK-OV-3 > 100 µM | TK-10 > 100 µM | UACC-257 > 100 µM | UACC-62 > 100 µM

O=C(CC(=O)N1N=C(n2ccc3ccccc32)CC1c1ccccc1)Nc1ccccc1Cl (stereo unspecified)
inactive: 786-0 > 100 µM | A498 > 100 µM | A549 > 100 µM | ACHN > 100 µM | HCT-116 > 100 µM | HOP-62 > 100 µM | IGROV-1 > 100 µM | M14 > 100 µM | NCI-H23 > 100 µM | OVCAR-3 > 100 µM | OVCAR-4 > 100 µM | RPMI-8226 > 100 µM | SK-MEL-28 > 100 µM | SK-OV-3 > 100 µM | TK-10 > 100 µM | UACC-257 > 100 µM | UACC-62 > 100 µM

COc1ccc(-c2cc(=O)c3cc(O)ccc3o2)c(OC)c1OC
inactive: 786-0 29 µM | A549 35.6 µM | ACHN 19.5 µM | CAKI-1 34.5 µM | HCT-116 26.5 µM | HOP-62 42.7 µM | IGROV-1 42.8 µM | M14 37.9 µM | NCI-H226 41.6 µM | NCI-H23 36.8 µM | OVCAR-3 18.4 µM | OVCAR-4 27.2 µM | RPMI-8226 12.9 µM | SK-MEL-28 53.7 µM | SK-OV-3 35.3 µM | TK-10 39.4 µM | UACC-257 32.2 µM | UACC-62 28.7 µM

CC(C)OP(=O)(OC(C)C)/C(=N/Nc1ccc([N+](=O)[O-])cc1)Nc1ccccc1
inactive: 786-0 24.1 µM | A498 > 10 µM | A549 23.1 µM | ACHN 24.8 µM | CAKI-1 34.7 µM | HCT-116 16.4 µM | HOP-62 29.7 µM | M14 20.2 µM | NCI-H226 16.4 µM | NCI-H23 26.2 µM | OVCAR-3 32.2 µM | OVCAR-4 28.4 µM | RPMI-8226 20.3 µM | SK-MEL-28 23.9 µM | TK-10 12.4 µM | UACC-257 21 µM | UACC-62 10.8 µM

c1cc2ccc1C1NCCCN1CCN1CCCNC1c1ccc(cc1)C1NCCCN1CCN1CCCNC21 (stereo unspecified)
inactive: 786-0 > 100 µM | A498 > 100 µM | A549 > 100 µM | ACHN > 100 µM | CAKI-1 > 100 µM | HCT-116 42.6 µM | HOP-62 > 100 µM | IGROV-1 > 100 µM | M14 99.8 µM | NCI-H23 > 100 µM | OVCAR-3 50.7 µM | OVCAR-4 > 100 µM | RPMI-8226 70.6 µM | SK-MEL-28 > 100 µM | SK-OV-3 > 100 µM | TK-10 > 100 µM | UACC-257 > 100 µM | UACC-62 > 100 µM

CC(C)c1cc(C(C)C)c(S(=O)(=O)N=[N+]=[N-])c(C(C)C)c1
inactive: 786-0 > 100 µM | A549 > 100 µM | ACHN > 100 µM | CAKI-1 > 100 µM | HCT-116 > 100 µM | HOP-62 > 100 µM | IGROV-1 > 100 µM | M14 > 100 µM | NCI-H226 > 100 µM | NCI-H23 > 100 µM | OVCAR-3 > 100 µM | OVCAR-4 81.8 µM | RPMI-8226 18.7 µM | SK-MEL-28 > 100 µM | SK-OV-3 > 100 µM | TK-10 > 100 µM | UACC-257 > 100 µM | UACC-62 > 100 µM

COc1cc(C(=O)C(CO)Oc2ccccc2OC)ccc1O (stereo unspecified)
inactive: 786-0 > 100 µM | A549 > 100 µM | ACHN > 100 µM | CAKI-1 > 100 µM | HCT-116 > 100 µM | HOP-62 > 100 µM | IGROV-1 > 100 µM | M14 > 100 µM | NCI-H226 > 100 µM | NCI-H23 > 100 µM | OVCAR-3 > 100 µM | OVCAR-4 > 100 µM | SK-MEL-28 > 100 µM | SK-OV-3 > 100 µM | TK-10 > 100 µM | UACC-257 > 100 µM | UACC-62 > 100 µM

CC1=CC(=O)N2C(OC[C@@H]2c2ccccc2)O1 (stereo partly specified)
inactive: 786-0 > 100 µM | A549 > 100 µM | ACHN > 100 µM | CAKI-1 > 100 µM | HCT-116 > 100 µM | HOP-62 > 100 µM | IGROV-1 > 100 µM | M14 > 100 µM | NCI-H226 > 100 µM | NCI-H23 > 100 µM | OVCAR-3 > 100 µM | OVCAR-4 > 100 µM | RPMI-8226 > 100 µM | SK-MEL-28 > 100 µM | SK-OV-3 > 100 µM | TK-10 > 100 µM | UACC-257 > 100 µM | UACC-62 > 100 µM

CC1=NC2(C(=O)O)C3(C(=O)O)N=C(C)OC3(C(F)(F)F)C2(C(F)(F)F)O1 (stereo unspecified)
inactive: 786-0 > 100 µM | A498 > 100 µM | A549 > 100 µM | ACHN > 100 µM | CAKI-1 > 100 µM | HCT-116 > 100 µM | HOP-62 > 100 µM | IGROV-1 > 100 µM | M14 > 100 µM | NCI-H226 > 100 µM | NCI-H23 > 100 µM | OVCAR-3 > 100 µM | OVCAR-4 > 100 µM | SK-MEL-28 > 100 µM | SK-OV-3 > 100 µM | TK-10 > 100 µM | UACC-257 > 100 µM | UACC-62 > 100 µM

CCOC(=O)c1c(-c2[nH]c(C(=O)OCc3ccccc3)c(C)c2C(=O)OCC)[nH]c(C(=O)OCc2ccccc2)c1C
inactive: 786-0 92 µM | A498 > 100 µM | A549 > 100 µM | ACHN 58.2 µM | CAKI-1 > 100 µM | HCT-116 > 100 µM | HOP-62 > 100 µM | IGROV-1 > 100 µM | M14 > 100 µM | NCI-H226 > 100 µM | OVCAR-3 > 100 µM | RPMI-8226 > 100 µM | SK-MEL-28 > 100 µM | SK-OV-3 > 100 µM | TK-10 > 100 µM | UACC-62 > 100 µM

COC(=O)C1CC2c3c(c4ccccc4n3C)CC(C1=O)N2C (stereo unspecified)
inactive: 786-0 47.5 µM | A498 28.2 µM | A549 36.4 µM | ACHN 35.7 µM | CAKI-1 43.5 µM | HCT-116 33 µM | IGROV-1 52.8 µM | M14 37.8 µM | NCI-H226 50.6 µM | NCI-H23 50.8 µM | OVCAR-3 34.8 µM | OVCAR-4 37.3 µM | SK-MEL-28 51.9 µM | SK-OV-3 51.4 µM | TK-10 40.2 µM | UACC-257 32.8 µM | UACC-62 49.5 µM

N#CCC(=O)N1CCCOCCC1
inactive: 786-0 > 100 µM | A498 > 100 µM | A549 > 100 µM | ACHN > 100 µM | CAKI-1 > 100 µM | HCT-116 > 100 µM | HOP-62 > 100 µM | IGROV-1 > 100 µM | M14 > 100 µM | NCI-H23 > 100 µM | OVCAR-4 38.6 µM | SK-MEL-28 > 100 µM | SK-OV-3 > 100 µM | TK-10 > 100 µM | UACC-257 > 100 µM | UACC-62 > 100 µM

C=C1C(=O)OC2C1CC[C@H](C)C13OC(=O)CC1[C@@]23C (stereo partly specified)
inactive: 786-0 > 100 µM | A498 > 100 µM | A549 > 100 µM | ACHN > 100 µM | CAKI-1 > 100 µM | HCT-116 > 100 µM | IGROV-1 > 100 µM | NCI-H226 > 100 µM | NCI-H23 > 100 µM | OVCAR-3 > 100 µM | RPMI-8226 > 100 µM | SK-MEL-28 > 100 µM | SK-OV-3 > 100 µM | TK-10 > 100 µM | UACC-257 > 100 µM | UACC-62 > 100 µM

CCC1C(C)c2c([nH]c3ccccc23)C2C(=O)N(c3ccccc3)C(=O)C21 (stereo unspecified)
inactive: 786-0 16.9 µM | A549 17.3 µM | ACHN 18.2 µM | IGROV-1 3.67 µM | M14 17.8 µM | NCI-H23 18.6 µM | OVCAR-3 13.3 µM | OVCAR-4 13.4 µM | RPMI-8226 11.9 µM | SK-MEL-28 17.7 µM | SK-OV-3 19.4 µM | TK-10 31.3 µM | UACC-62 9.42 µM

CC(C)N1CN(C(C(=O)N[C@@H]2C(=O)N3C2SC(C)(C)C3C(=O)O)c2ccc(O)cc2)CSC1=S (stereo partly specified)
inactive: 786-0 > 100 µM | A498 > 100 µM | ACHN > 100 µM | CAKI-1 > 100 µM | HCT-116 > 100 µM | HOP-62 > 100 µM | IGROV-1 > 100 µM | M14 > 100 µM | NCI-H23 > 100 µM | OVCAR-3 41.1 µM | OVCAR-4 > 100 µM | RPMI-8226 94.2 µM | SK-MEL-28 > 100 µM | SK-OV-3 > 100 µM | TK-10 > 100 µM | UACC-257 > 100 µM | UACC-62 > 100 µM

CN(C)c1ccccc1CC(c1c[nH]c2ccccc12)c1c[nH]c2ccccc12
inactive: 786-0 12.8 µM | A498 17.1 µM | A549 10.2 µM | ACHN 8.36 µM | CAKI-1 4.94 µM | HCT-116 11.2 µM | HOP-62 6.62 µM | IGROV-1 15.8 µM | M14 11.4 µM | NCI-H226 12.1 µM | NCI-H23 6.85 µM | OVCAR-3 12.8 µM | OVCAR-4 9.06 µM | SK-OV-3 19.3 µM | TK-10 16.2 µM | UACC-257 16.2 µM | UACC-62 14.2 µM
